Experimental data published in US10071095B2, “1,2,4-triazolo [4,3-A] pyridine derivatives and their use for the treatment of neurological and psychiatric disorders” (JANSSEN PHARMACEUTICALS, INC., priority 2009, dated 2018).
Like-named read-outs stand apart in the source and are kept apart here. Marks after values point to notes of the source that are not given here.

How the values were obtained:
human mGluR2 receptor = biological target: T1, human mGluR2 receptor (Homo sapiens, UniProt Q14416); experiment: [35S]GTPγS binding assay, positive allosteric modulation (GTPγS-PAM) in presence of EC20 glutamate; format: biochemical; details: in presence of glutamate at EC20, average pEC50 if more experiments, ‡ means tested once
T1 construct: expressed in transfected cells; host or cells: CHO cells
Method in brief: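 Membranes from butyrate-stimulated CHO cells expressing human mGluR2 (7 μg protein) preincubated 30 min at 30°C with compound plus ~EC20 glutamate in HEPES pH 7.4, 100 mM NaCl, 3 mM MgCl2, 10 μM GDP, 10 μg/ml saponin. [35S]GTPγS (0.1 nM) incorporation over 30 min at 30°C measured by filtration and scintillation counting.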

[1] = tested on: PCP-induced hyperlocomotion in male NMRI mice; experiment: Phencyclidine (PCP)-induced hyperlocomotion in mice (video tracking); format: in vivo; details: for ED50: Mus musculus, read-out: Mice ED50 (mg/kg) PCP-Inh.; for Mice ED50 (mg/kg) PCP-Inh., estimated ED50 (footnote a): estimated ED50 values (n = 3 per dose; 4-fold separation between doses)
Experimental: (§1) Motor Activity (Video Tracking)
(§2) Apparatus and General Procedure
(§3) On the day of experiments, the mice were brought into the procedural room. They were housed individually and allowed to acclimate for at least a half hour prior to testing. Although the studies were conducted during the light cycle (from 8:00 to 16:00 h), the procedure room was only sparsely lit (3 to 30 LUX) to provide better contrast for the video tracking. Local lighting was used for the injection procedures. During each trial, an individual mouse was placed in an open field arena (grey PVC cylinder with a height of 40 cm and a diameter of 22.5 cm). Each arena was placed on an infrared LED (8×8 LEDs)-lit box (white PVC squared box; 40×40 cm^2; height 12.5 cm). Each mouse was placed in the center of the arena and allowed to explore freely for 30 min. After each trial, the arena was cleaned with a wet and subsequently with a dry cleaning cloth. An infrared sensitive tube camera and a white light source (in arena: 4-7 LUX) were mounted to the ceiling above the observation chamber to record and input activity to a computer. Animal behavior was recorded and analyzed using the Noldus Ethovision XT Video Tracking System (Version 3.1; Noldus, Wageningen, The Netherlands). The total distance traveled (cm) was calculated. Data were then exported to data management systems for further analysis and reporting.
Phencyclidine (PCP)-Induced Hyperlocomotion in Mice
Test compound or solvent was administered at a pre-defined time before measurement (standard: 30 min) to male NMRI mice that were challenged with phencyclidine (PCP; 5 mg/kg, s.c.) 30 min before measurement. Activity was measured for a period of 30 min.

[2] = tested on: memantine-induced 2DG uptake in mouse brain (hippocampus); experiment: Reversal of memantine-induced brain activation ([14C]2DG uptake) in mice; format: in vivo; details: for L.A.D. (lowest active dose for significant reduction of 2DG uptake in hippocampus vs memantine response): mice C57BL/6, s.c., memantine 20 mg/kg s.c., p<0.05; for effect on memantine-induced brain glucose metabolism / 2DG uptake (in words): mouse brain, reference drugs
Experimental: Reversal of Memantine-Induced Brain Activation in Mice
NMDA receptor hypofunction is hypothesized to be involved in schizophrenia.
Autoradiographic assessment of radiolabeled [^14C]-2-deoxyglucose ([^14C]2DG) uptake is commonly used to investigate brain activation. In humans, cerebral blood flow is increased in specific brain regions after administration of a subanaesthetic dose of ketamine.
Male mice (C57BL/6, weight 24-28 g, fasted overnight; n=10 animals per group) were treated with vehicle or test compound (s.c.) in randomized order (t=0 min). Memantine (20 mg/kg, s.c.) was injected 30 min later (t=30 min). At t=45 min, [^14C]2DG (0.16 μCi/g) was administered intraperitoneally (i.p.), followed by a 45 min uptake period. Animals were decapitated (t=90 min), plasma glucose levels measured, the brain removed, rapidly frozen and stored at −20° C. until sectioned. Brain sections were exposed together to a precalibrated [^14C]standard on film, which was developed after four days of exposure. Local tissue [^14C]concentration (nCi/mg tissue equivalent—TEQ—) in each region of interest was determined.
Data was analyzed statistically using a two-way ANOVA analysis followed by post-hoc tests (memantine response versus reversal by the compound). The results are shown in table 5 below, expressed as lowest active dose (L.A.D.) required to exert a statistically significant (p<0.05) reduction of 2DG uptake in the hippocampus compared to memantine response.

[3] = tested on: conditioned avoidance response in male Wiga Wistar rats; experiment: Conditioned avoidance response (CAR) test in rats; format: in vivo; details: for ED50: Rattus norvegicus, po, read-out: ED50 (mg/kg) CAR-Inh.
Excerpt: Conditioned Avoidance Response (CAR) Test
The apparatus consisted of an inner box surrounded by an outer box. The inner box was composed of four walls of transparent, synthetic material (length×width×height: 30×30×30 cm), an open top, and a grid floor made of 15 pairs of iron bars (2 mm diameter; 6 mm inter-bar distance). Odd and even bars were connected with a source of alternative current (1.0 mA; Coulbourn Instruments Solid State Shocker/Distributor), which could be interrupted by a switch. The outer box was composed of the same material (length×width×height: 40×40×36 cm), also with an open top, with a distance of 5 cm between the inner and outer box on all sides. To decrease the amount of environmental stimuli, three walls of the outer box were made non-transparent. The front wall was left transparent to allow the necessary inspection of the animal during the test. The upper edge of the outer and inner box served as a target for the rats on which to jump with fore- and hind-paws, respectively.
Avoidance Conditioning and Selection of Animals
From their arrival in the laboratory on the experimental day, male Wiga Wistar rats (230±30 g) were housed in individual cages provided with bedding material.
Latency to avoidance was recorded. The median avoidance response obtained over the three experimental sessions for each rat were used for further calculations.

REM sleep in rats = experiment: Sleep wake electroencephalography (SW-EEG) in rats; format: in vivo
Excerpt: Sleep Wake Electroencephalography (SW-EEG) in Rats
SW-EEG analyses are a highly sensitive read-out of a compound's central functional activity that may provide additional insight in the potential therapeutic application (i.e. via drug classification fingerprinting). […] Internal efforts have confirmed that this effect is mGlu2 receptor-mediated, i.e. is absent in mGlu2 KO mice. Sleep abnormalities are often associated with CNS disorders; as such, the potential use of mGlu2 modulators could also have benefit in the treatment of CNS disorders in which (REM) sleep aberrations are manifested. More specifically, the combination of a persistent reduction in REM occurrence and an increase in REM latency is one of the key features of the typical SW architecture fingerprint of most clinically active antidepressants.
We investigated the effects of oral administration of compounds according to the invention on SW organization in rats. The mGlu2/3 receptor agonists LY404039 and LY354740 were also evaluated to allow comparison.

[4] = tested on: d-amphetamine-induced hyperlocomotion in male NMRI mice; experiment: d-Amphetamine-induced hyperlocomotion in mice (video tracking); format: in vivo
Experimental: as §1, §2
as §3, with “An infrared sensitive tube camera and a white light source (in arena: 4-7 LUX) were mounted to the ceiling above the observation chamber to record and input activity to a computer.” left out, “Data were then exported to data management systems for further analysis and reporting.” left out
Test compound or solvent was administered at a pre-defined time before measurement (standard: 30 min) to male NMRI mice that were challenged with d-amphetamine (5 mg/kg, s.c.) 30 min before measurement. Activity was measured for a period of 30 min.

[5] = compound administered orally (*); a)/b) = estimated ED50 values
[6] = not marked * (not oral; injection per method); b) = estimated ED50 values (n = 3 per dose)
[7] = mice, inhibition of PCP-induced hyperlocomotion

T1 sequence (Q14416 19-872): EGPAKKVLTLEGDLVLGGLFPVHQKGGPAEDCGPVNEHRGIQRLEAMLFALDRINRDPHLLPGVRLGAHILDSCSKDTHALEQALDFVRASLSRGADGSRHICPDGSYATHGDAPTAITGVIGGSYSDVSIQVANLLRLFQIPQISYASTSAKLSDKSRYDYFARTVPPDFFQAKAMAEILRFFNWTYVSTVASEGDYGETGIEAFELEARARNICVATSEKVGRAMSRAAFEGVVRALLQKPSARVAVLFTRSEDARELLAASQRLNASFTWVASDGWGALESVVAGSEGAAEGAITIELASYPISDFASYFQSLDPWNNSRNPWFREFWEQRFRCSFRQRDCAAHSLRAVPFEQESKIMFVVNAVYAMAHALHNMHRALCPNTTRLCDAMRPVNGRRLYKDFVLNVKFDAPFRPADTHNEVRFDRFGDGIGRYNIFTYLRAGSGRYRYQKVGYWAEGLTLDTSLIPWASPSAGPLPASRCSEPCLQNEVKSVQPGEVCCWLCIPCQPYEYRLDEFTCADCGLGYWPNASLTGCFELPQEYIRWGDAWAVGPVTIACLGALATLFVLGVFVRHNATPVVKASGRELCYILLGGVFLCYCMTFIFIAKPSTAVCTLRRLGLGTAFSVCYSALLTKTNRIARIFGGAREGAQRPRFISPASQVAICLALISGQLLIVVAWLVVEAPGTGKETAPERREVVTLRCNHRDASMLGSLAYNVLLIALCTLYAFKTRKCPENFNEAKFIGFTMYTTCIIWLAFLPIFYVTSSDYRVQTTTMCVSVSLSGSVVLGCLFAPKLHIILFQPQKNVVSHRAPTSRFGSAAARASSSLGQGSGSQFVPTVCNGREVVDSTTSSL

SMILES | ED50 [1] [mg/kg] | inhibition of PCP-induced hyperlocomotion in mice (in words) ([1]; mice) | L.A.D. (lowest active dose for significant reduction of 2DG uptake in hippocampus vs memantine response) [2] | GTPγS - hR2 PAM pEC50 (human mGluR2 receptor) | ED50 [3, 5] [mg/kg] | inhibition of the conditioned avoidance response in rats (in words) [3] | other results
CC1(C)OC2(CCN(c3ccn4c(CC5CC5)nnc4c3C(F)(F)F)CC2)c2ccccc21 [compound 112, 1′-[3-cyclopropylmethyl-8-(trifluoromethyl)[1,2,4]triazolo[4,3-a]pyridin-7-yl]-3,3-dimethyl-3H-spiro[benzo[c]furan-1,4′-piperidine]] | 2 | inhibited | ≤2.5 mg/kg, s.c. |  |  |  | EC50 (human mGluR2 receptor; read-out: GTPγS - hR2 PAM pEC50 (converted)): 6.46 nM; melting point: 207.7 °C
FC(F)(F)C1(c2ccccc2)CCN(c2ccn3c(CC4CC4)nnc3c2Cl)CC1 [compound 15, 8-Chloro-3-(cyclopropylmethyl)-7-(4-trifluoromethyl-4-phenyl-piperidin-1-yl)-1,2,4-triazolo[4,3-a]pyridine] | > 10 |  |  | 6.75 | ≥ 40 |  | melting point: 276.7 °C
O=C(CCCN1CCC(O)(c2ccc(Cl)cc2)CC1)c1ccc(F)cc1 [haloperidol, reference compound] |  |  |  |  |  |  | effect on memantine-induced brain glucose metabolism / 2DG uptake (in words) [2]: inactive
N[C@@]1(C(=O)O)CS(=O)(=O)[C@H]2[C@H](C(=O)O)[C@H]21 [LY404039, reference compound] |  |  |  |  |  |  | effect on REM sleep (in words) (REM sleep in rats; 3 mg/kg, p.o.): affect REM sleep; effect on memantine-induced brain glucose metabolism / 2DG uptake (in words) [2]: inhibited
FC(F)(F)c1c(N2CCC(c3ccccc3)CC2)ccn2c(CC3CC3)nnc12 [compound 43, 3-(Cyclopropylmethyl)-7-(4-phenyl-1-piperidinyl)-8-(trifluoromethyl)-1,2,4-triazolo[4,3-a]pyridine] | 5.4 | inhibited | ≤2.5 mg/kg, s.c. |  | 16.3 | inhibited | ED50 [3, 6]: 2.35 mg/kg; effect of subchronic treatment on REM sleep effect (in words) (REM sleep in rats; once daily dosing for 7 days, 3, 10 and 30 mg/kg, p.o.): did not diminish the effects; ED50 ([4]; Mus musculus, sc, male NMRI mice, s.c., d-amphetamine 5 mg/kg s.c., criterion total distance <5500 counts, read-out: ED50, inhibition of amphetamine-induced hyperlocomotion): 37 mg/kg; activity against d-amphetamine-induced hyperlocomotion in mice (in words) ([4]; mice): active
CC1(c2ccccc2)CCN(c2ccn3c(CC4CC4)nnc3c2C(F)(F)F)CC1 [compound 151] |  | inhibited | 10 mg/kg, s.c. | 7.48 |  |  | Mice ED50 (mg/kg) PCP-Inh., estimated ED50 (footnote a) [1, 7]: 12.6 ^a) mg/kg
FC(F)(F)Cc1nnc2c(Cl)c(N3CCC(F)(c4ccccc4)CC3)ccn12 [compound 3, 8-Chloro-7-(4-fluoro-4-phenyl-1-piperidinyl)-3-(2,2,2-trifluoroethyl)-1,2,4-triazolo[4,3-a]pyridine] | 15.2 | inhibited | ≤2.5 mg/kg, s.c. | 6.94 | 14.1 | inhibited | ED50 [3, 6]: 10.7 mg/kg
Fc1ccc(N2CCN(c3ccn4c(CC(F)(F)F)nnc4c3Cl)CC2)c(F)c1 [compound 97] |  | inhibited | ≤10 mg/kg, s.c. | 6.3 |  | inhibited | ED50 (mg/kg) CAR-Inh. [3, 5]: 32*^b) mg/kg; ED50 (mg/kg) CAR-Inh. [3, 6]: 16^b) mg/kg; Mice ED50 (mg/kg) PCP-Inh., estimated ED50 (footnote a) [1, 7]: 6.3 ^a) mg/kg
N[C@@]1(C(=O)O)CC[C@H]2[C@H](C(=O)O)[C@H]21 [LY354740] |  |  |  |  |  |  | lowest active dose, decrease in REM sleep (REM sleep in rats; acute dosing, s.c.): 3 mg/kg; effect of subchronic treatment on REM sleep effect (in words) (REM sleep in rats; once daily dosing for 7 days, 1, 3, 10 mg/kg, s.c.): led to tolerance
FC(F)(F)Cc1nnc2c(Cl)c(N3CCC4(CC3)COc3ccccc34)ccn12 [compound 98] |  |  | ≤10 mg/kg, s.c. | 6.75 |  |  | Mice ED50 (mg/kg) PCP-Inh. ([1]; mice, inhibition of PCP-induced hyperlocomotion, dose at which 50% of the tested animals show the effect): >40 mg/kg
